According to patent US8609690B2, “Aryl- and heteroarylcarbonyl derivatives of substituted nortropanes, medicaments containing such compounds and their use” (Boehringer Ingelheim International GmbH, priority 2008, dated 2013):

Target: T1, 11β-HSD 1 (Homo sapiens, UniProt P28845)
T1 construct: detecting cortisol generated from cortisterone by human liver microsomes; from tissue; host or cells: human liver microsomes
Test: In vitro inhibition of 11β-HSD 1, HTRF detection of cortisol generated by human liver microsomes
Type: biochemical
Conditions: 1 μM test compound, 100% indicates no inhibition, zero or below zero indicates complete inhibition (relative to carbenoxolone)
Protocol: Briefly, compounds were incubated for 1 hour at 37° C. in Tris buffer (20 mM tris, 5 mM EDTA, pH 6.0) containing NADPH (200 μM) and cortisone (80 nM). Cortisol generated in the reaction is then detected with a competitive immunoassay, involving two HTRF conjugates: cortisol linked to XL665 and anti-cortisol antibody labeled with Europium cryptate. The incubation period for detection reaction was typically 2 hours. The amount of cortisol is determined by reading the time-resolved fluorescence of the wells (Ex 320/75 nm; Em 615/8.5 nm and 665/7.5 nm). The ratio of the two emission signals is then calculated (Em665*10000/Em615). […] Each assay also contained a calibration curve with cortisol to transform the fluorescent data into cortisol concentrations. Percent inhibition of each compound was determined relative to the carbenoxolone signal. In Table 2 the 11β-HSD 1 inhibitory activities at 1 μM concentration of test compound, determined as described above, of the compounds listed in Table 3 are compiled, wherein 100% indicates no inhibition and a value of zero or below zero indicates complete inhibition.

T1 sequence (P28845 whole entry): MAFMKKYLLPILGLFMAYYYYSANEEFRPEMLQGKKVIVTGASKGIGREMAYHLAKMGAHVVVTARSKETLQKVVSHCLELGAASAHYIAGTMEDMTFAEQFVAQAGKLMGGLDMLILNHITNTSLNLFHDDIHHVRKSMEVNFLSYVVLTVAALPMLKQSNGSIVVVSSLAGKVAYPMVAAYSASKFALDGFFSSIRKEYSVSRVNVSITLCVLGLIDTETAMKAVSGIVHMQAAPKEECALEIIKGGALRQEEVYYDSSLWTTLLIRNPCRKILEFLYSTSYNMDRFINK

Compound | Inhibitory activity on 11β-HSD 1, % CTL [% CTL]
Nc1ccc(C(=O)N2[C@@H]3CC[C@H]2C[C@@H](c2ccc(F)cc2)C3)cc1Cl [Example 173, endo-(4-Amino-3-chloro-phenyl)-[3-(4-fluoro-phenyl)-8-aza-bicyclo[3.2.1]oct-8-yl]-methanone] | −46
O=C(c1ccccc1)N1[C@@H]2CC[C@H]1C[C@@H](c1ccc(F)cc1)C2 [Example 96, endo-[3-(4-Fluoro-phenyl)-8-aza-bicyclo[3.2.1]oct-8-yl]-phenyl-methanone] | 33
Cc1ccc([C@H]2C[C@H]3CC[C@@H](C2)N3C(=O)c2ccco2)cc1 [Example 17, endo-Furan-2-yl-(3-p-tolyl-8-aza-bicyclo[3.2.1]oct-8-yl)-methanone] | 93
O=C(c1ccc(O)nc1)N1[C@@H]2CC[C@H]1C[C@@H](c1ccc(F)cc1)C2 [Example 102, endo-[3-(4-Fluoro-phenyl)-8-aza-bicyclo[3.2.1]oct-8-yl]-(6-hydroxy-pyridin-3-yl)-methanone] | 47
Nc1ccc(C(=O)N2[C@@H]3CC[C@H]2C[C@@H](c2ccc(F)cc2)C3)cc1F [Example 176, endo-(4-Amino-3-fluoro-phenyl)-[3-(4-fluoro-phenyl)-8-aza-bicyclo[3.2.1]oct-8-yl]-methanone] | −42
O=C(c1ccc2[nH]ccc2c1)N1[C@@H]2CC[C@H]1C[C@@H](c1ccc(F)cc1)C2 [Example 113, endo-[3-(4-Fluoro-phenyl)-8-aza-bicyclo[3.2.1]oct-8-yl]-(1H-indol-5-yl)-methanone] | −23
O=C(c1ccc2[nH]cnc2c1)N1[C@@H]2CC[C@H]1C[C@@H](c1ccc(F)cc1)C2 [Example 1, endo-(1H-Benzoimidazol-5-yl)-[3-(4-fluoro-phenyl)-8-aza-bicyclo[3.2.1]oct-8-yl]-methanone] | −18
CN1C(=O)Cc2cc(C(=O)N3[C@@H]4CC[C@H]3C[C@@H](c3ccc(F)cc3)C4)ccc21 [Example 78] | 49
COc1ccc(C(=O)N2[C@@H]3CC[C@H]2C[C@@H](c2ccc(F)cc2)C3)cc1 [Example 108, endo-[3-(4-Fluoro-phenyl)-8-aza-bicyclo[3.2.1]oct-8-yl]-(4-methoxy-phenyl)-methanone] | 1
O=C(c1ccc2c(c1)OCCO2)N1[C@@H]2CC[C@H]1C[C@@H](c1ccc(Br)cc1)C2 [Example 155, endo-[3-(4-Bromo-phenyl)-8-aza-icyclo[3.2.1]oct-8-yl]-(2,3-dihydro-benzo[1,4]dioxin-6-yl)-methanone] | −17
O=C(c1ccc2c(c1)OCO2)N1[C@@H]2CC[C@H]1C[C@@H](c1ccc(F)cc1)C2 [Example 114, endo-Benzo[1,3]dioxol-5-yl-[3-(4-fluoro-phenyl)-8-aza-bicyclo[3.2.1]oct-8-yl]-methanone] | −10
O=C(c1ccc2c(c1)OC(F)(F)O2)N1[C@@H]2CC[C@H]1C[C@@H](c1ccc(F)cc1)C2 [Example 76, endo-(2,2-Difluoro-benzo[1,3]dioxol-5-yl)-[3-(4-fluoro-phenyl)-8-aza-bicyclo[3.2.1]oct-8-yl]-methanone] | 76
CS(=O)(=O)N1CCc2cc(C(=O)N3[C@@H]4CC[C@H]3C[C@@H](c3ccc(F)cc3)C4)ccc21 [Example 20, endo-[3-(4-Fluoro-phenyl)-8-aza-bicyclo[3.2.1]oct-8-yl]-(1-methanesulfonyl-2,3-dihydro-1H-indol-5-yl)-methanone] | 87
CS(=O)(=O)c1cccc(C(=O)N2[C@@H]3CC[C@H]2C[C@@H](c2ccc(F)cc2)C3)c1 [Example 67, Endo-[3-(4-Fluoro-phenyl)-8-aza-bicyclo[3.2.1]oct-8-yl]-(3-methanesulfonyl-phenyl)-methanone] | 85
NC(=O)c1cccc(C(=O)N2[C@@H]3CC[C@H]2C[C@@H](c2ccc(F)cc2)C3)c1 [Example 84, endo-3-[3-(4-Fluoro-phenyl)-8-aza-bicyclo[3.2.1]octane-8-carbonyl]-benzamide] | 41
Cc1cc(=O)n2ncc(C(=O)N3[C@@H]4CC[C@H]3C[C@@H](c3ccc(F)cc3)C4)c2[nH]1 [Example 8, endo-3-[3-(4-Fluoro-phenyl)-8-aza-bicyclo[3.2.1]octane-8-carbonyl]-5-methyl-4H-pyrazolo[1,5-a]pyrimidin-7-one] | 87

Compound | Inhibitory activity on 11β-HSD 1, % CTL [% CTL]
CC(C)(C)c1cc(C(=O)N2[C@@H]3CC[C@H]2C[C@@H](c2ccc(F)cc2)C3)[nH]n1 [Example 11, endo-(5-tert-Butyl-2H-pyrazol-3-yl)-[3-(4-fluoro-phenyl)-8-aza-bicyclo[3.2.1]oct-8-yl]-methanone] | 82
Cc1cc(C(F)F)n2nc(C(=O)N3[C@@H]4CC[C@H]3C[C@@H](c3ccc(F)cc3)C4)nc2n1 [Example 162, endo-(7-Difluoromethyl-5-methyl-[1,2,4]triazolo[1,5-a]pyrimidin-2-yl)-[3-(4-fluoro-phenyl)-8-aza-bicyclo[3.2.1]oct-8-yl]-methanone] | 96
CC(C)c1ccc([C@H]2C[C@H]3CC[C@@H](C2)N3C(=O)c2ccc3c(c2)OCCO3)cc1 [Example 136, endo-(2,3-Dihydro-benzo[1,4]dioxin-6-yl)-[3-(4-isopropyl-phenyl)-8-aza-bicyclo[3.2.1]oct-8-yl]-methanone] | 17
COc1ccc(C(=O)N2[C@@H]3CC[C@H]2C[C@@H](c2ccc(F)cc2)C3)c(OC)c1 [Example 117, endo-(2,4-Dimethoxy-phenyl)-[3-(4-fluoro-phenyl)-8-aza-bicyclo[3.2.1]oct-8-yl]-methanone] | 53
CC(=O)Nc1ccc(C(=O)N2[C@@H]3CC[C@H]2C[C@@H](c2ccc(F)cc2)C3)cc1 [Example 115, endo-N-{4-[3-(4-Fluoro-phenyl)-8-aza-bicyclo[3.2.1]octane-8-carbonyl]-phenyl}-acetamide] | 33
COc1cccc(C(=O)N2[C@@H]3CC[C@H]2C[C@@H](c2ccc(F)cc2)C3)c1 [Example 109, endo-[3-(4-Fluoro-phenyl)-8-aza-bicyclo[3.2.1]oct-8-yl]-(3-methoxy-phenyl)-methanone] | −33
Cc1ccc([C@H]2C[C@H]3CC[C@@H](C2)N3C(=O)c2cccs2)cc1 [Example 15, endo-Thiophen-2-yl-(3-p-tolyl-8-aza-bicyclo[3.2.1]oct-8-yl)-methanone] | 56
NCc1cccc([C@@H]2C[C@H]3CC[C@@H](C2)N3C(=O)c2ccc3c(c2)OCCO3)c1 [Example 147, exo-[3-(3-Aminomethyl-phenyl)-8-aza-bicyclo[3.2.1]oct-8-yl]-(2,3-dihydro-benzo[1,4]dioxin-6-yl)-methanone] | 99
N#Cc1ccccc1C(=O)N1[C@@H]2CC[C@H]1C[C@@H](c1ccc(F)cc1)C2 [Example 63, endo-2-[3-(4-Fluoro-phenyl)-8-aza-bicyclo[3.2.1]octane-8-carbonyl]-benzonitrile] | 91
CC(C)(C)Oc1ccc(C(=O)N2[C@@H]3CC[C@H]2C[C@@H](c2ccc(F)cc2)C3)cc1 [Example 49, endo-(4-tert-Butoxy-phenyl)-[3-(4-fluoro-phenyl)-8-aza-bicyclo[3.2.1]oct-8-yl]-methanone] | 67
COc1cc(C(=O)N2[C@@H]3CC[C@H]2C[C@@H](c2ccc(F)cc2)C3)cc(OC)c1O [Example 181, endo-[3-(4-Fluoro-phenyl)-8-aza-bicyclo[3.2.1]oct-8-yl]-(4-hydroxy-3,5-dimethoxy-phenyl)-methanone] | 18
N#Cc1ccc(C(=O)N2[C@@H]3CC[C@H]2C[C@@H](c2ccc(F)cc2)C3)cc1 [Example 105, endo-4-[3-(4-Fluoro-phenyl)-8-aza-bicyclo[3.2.1]octane-8-carbonyl]-benzonitrile] | 58
CNC(=O)c1ccc(C(=O)N2[C@@H]3CC[C@H]2C[C@@H](c2ccc(F)cc2)C3)cc1 [Example 79, endo-4-[3-(4-Fluoro-phenyl)-8-aza-bicyclo[3.2.1]octane-8-carbonyl]N-methyl-benzamide] | 90
O=C(c1cnn2cccnc12)N1[C@@H]2CC[C@H]1C[C@@H](c1ccc(F)cc1)C2 [Example 35, endo-[3-(4-Fluoro-phenyl)-8-aza-bicyclo[3.2.1]oct-8-yl]-pyrazolo[1,5-a]pyrimidin-3-yl-methanone] | 62
endo-[3-(3,4-Difluoro-phenyl)-8-aza-bicyclo[3.2.1]oct-8-yl]-(2,3-dihydro-benzo[1,4]dioxin-6-yl)-methanone [Example 137] | 16
